Assay results published in paper PMC2706530 (Hypertension, 2009).
Blank lines part the entries; values can stand above or below the compound they belong to.

Legend:
Assay type in all cases: biochemical
aminopeptidase-A = aminopeptidase-A (Rattus norvegicus, UniProt P50123); assay: Effect of APA inhibitor on ANG-I conversion by isolated rat glomeruli; conditions: 100 μM amastatin, 1 μM ANG-I
ANG-II type 1-receptor = assay: Effect of losartan pre-incubation on ANG-II detection in isolated rat glomeruli; conditions: pre-incubation with 10 μM losartan, 1 μM ANG-I; data not shown
neprilysin = biological target: T1, neprilysin (Rattus norvegicus, UniProt P07861); assay: Effect of NEP inhibitor on ANG-I conversion by isolated rat glomeruli; conditions: 10 μM thiorphan, 1 μM ANG-I, 15-90 minutes; p < 0.05 vs. untreated; n=7
T1 sequence (P07861 1-750): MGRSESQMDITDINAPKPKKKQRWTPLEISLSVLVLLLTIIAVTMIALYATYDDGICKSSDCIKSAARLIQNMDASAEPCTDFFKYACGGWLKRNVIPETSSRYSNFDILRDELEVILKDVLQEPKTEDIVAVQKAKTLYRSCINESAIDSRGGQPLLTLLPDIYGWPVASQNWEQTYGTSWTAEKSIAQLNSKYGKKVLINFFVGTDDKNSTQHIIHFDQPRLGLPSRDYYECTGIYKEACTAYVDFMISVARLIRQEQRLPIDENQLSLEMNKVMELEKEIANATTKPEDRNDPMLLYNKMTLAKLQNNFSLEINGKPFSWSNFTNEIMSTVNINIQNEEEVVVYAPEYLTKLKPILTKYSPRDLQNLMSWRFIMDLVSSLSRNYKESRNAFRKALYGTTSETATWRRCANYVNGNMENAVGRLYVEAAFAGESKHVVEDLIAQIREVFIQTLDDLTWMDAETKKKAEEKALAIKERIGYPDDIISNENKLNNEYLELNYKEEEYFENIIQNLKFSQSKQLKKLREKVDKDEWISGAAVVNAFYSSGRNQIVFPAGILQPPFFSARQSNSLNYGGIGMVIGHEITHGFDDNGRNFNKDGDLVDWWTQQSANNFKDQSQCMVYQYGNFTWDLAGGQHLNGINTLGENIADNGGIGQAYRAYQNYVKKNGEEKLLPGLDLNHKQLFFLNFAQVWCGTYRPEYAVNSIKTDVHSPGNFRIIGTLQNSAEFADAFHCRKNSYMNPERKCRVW

aminopeptidase-A, sequence (P50123 whole entry): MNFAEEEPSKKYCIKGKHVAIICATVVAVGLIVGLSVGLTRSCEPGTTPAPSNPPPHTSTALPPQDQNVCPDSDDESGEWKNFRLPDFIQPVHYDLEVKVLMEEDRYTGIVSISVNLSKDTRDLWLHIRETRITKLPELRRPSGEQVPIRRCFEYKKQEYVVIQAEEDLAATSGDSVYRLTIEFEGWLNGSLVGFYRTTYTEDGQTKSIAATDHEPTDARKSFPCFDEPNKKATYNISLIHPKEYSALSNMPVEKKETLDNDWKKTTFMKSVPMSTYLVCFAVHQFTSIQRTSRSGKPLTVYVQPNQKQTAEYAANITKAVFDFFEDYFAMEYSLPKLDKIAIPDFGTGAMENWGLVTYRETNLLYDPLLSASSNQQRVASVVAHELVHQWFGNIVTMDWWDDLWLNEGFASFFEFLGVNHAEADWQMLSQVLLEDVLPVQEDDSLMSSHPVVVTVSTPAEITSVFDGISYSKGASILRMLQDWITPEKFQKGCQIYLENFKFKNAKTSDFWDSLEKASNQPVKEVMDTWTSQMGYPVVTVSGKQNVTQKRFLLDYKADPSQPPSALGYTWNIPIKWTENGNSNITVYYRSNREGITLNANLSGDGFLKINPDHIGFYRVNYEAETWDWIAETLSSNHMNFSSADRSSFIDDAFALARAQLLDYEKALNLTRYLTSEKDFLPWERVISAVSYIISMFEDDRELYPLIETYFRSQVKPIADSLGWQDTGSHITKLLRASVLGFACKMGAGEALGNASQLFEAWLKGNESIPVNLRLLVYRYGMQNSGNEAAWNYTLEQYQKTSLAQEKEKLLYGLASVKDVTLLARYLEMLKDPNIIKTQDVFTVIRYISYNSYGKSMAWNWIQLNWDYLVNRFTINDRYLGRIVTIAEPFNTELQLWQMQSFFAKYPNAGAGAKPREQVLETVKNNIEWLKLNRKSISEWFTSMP

- effect on disappearance of ANG-I (APA inhibition) (aminopeptidase-A; 15-90 minutes, p < 0.05 vs. untreated, n=7): significantly reduced
- change in ANG-II, amastatin-treated (aminopeptidase-A; 60 minutes): non-significant increase
Compound: CC(C)C[C@@H](N)[C@H](O)C(=O)N[C@H](C(=O)N[C@H](C(=O)N[C@@H](CC(=O)O)C(=O)O)C(C)C)C(C)C [amastatin]

Compound: CCCCc1nc(Cl)c(CO)n1Cc1ccc(-c2ccccc2-c2nn[nH]n2)cc1 [losartan]
- effect on detection of ANG-II (ANG-II type 1-receptor): did not enhance the detection of ANG-II

- effect on disappearance of ANG-I (NEP inhibition) (neprilysin): significantly reduced
Compound: O=C(O)CNC(=O)C(CS)Cc1ccccc1 (stereo not shown) [thiorphan]
